The experiment has as its target IL-17RA/IL17RC dimerization induced by IL-17A (Homo sapiens, UniProt Q16552). Nature of the experiment: IL-17RA/IL17RC dimerization assay in response to IL-17A (PathHunter Cytokine Receptor Assay). Type of experiment: cell-based. The method, boiled down:
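PathHunter cells with IL-17RA and IL-17RC tagged for β-galactosidase complementation were preincubated 60 min with peptide (1% vehicle). IL-17A was then added at EC80 for 6–16 h at 37 °C, and chemiluminescence was read. Inhibition is relative to the EC80 and vehicle controls.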

Setting [1] is: IL-17A at EC80, read-out: IC50 in IL-17RA/IL7RC dimerization assay.

Where two headings read alike, the source gives them in different places. Residues, ends and D or L forms follow the SMILES beside them. Bounds are passed on as bounds.

Chain of IL-17RA/IL17RC dimerization induced by IL-17A (Q16552 24-155): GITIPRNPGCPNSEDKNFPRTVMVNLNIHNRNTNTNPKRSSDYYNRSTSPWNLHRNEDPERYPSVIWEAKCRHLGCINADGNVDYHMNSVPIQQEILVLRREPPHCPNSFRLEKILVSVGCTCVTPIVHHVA

`CC[C@H](C)[C@H](NC(C)=O)C(=O)N[C@@H](Cc1c[nH]cn1)C(=O)N[C@H](C(=O)N[C@H](C(=O)N[C@H](C(=O)N1CCC[C@H]1C(=O)N[C@@H](C)C(=O)N[C@@H](CC(=O)O)C(=O)N[C@H](C(=O)N[C@@H](Cc1c[nH]c2ccccc12)C(=O)N[C@@H](CC(=O)O)C(=O)N[C@@H](Cc1c[nH]c2ccccc12)C(=O)N[C@H](C(=O)N[C@@H](CC(N)=O)C(=O)N[C@@H](CCCCN)C(N)=O)[C@@H](C)CC)[C@@H](C)CC)[C@@H](C)CC)[C@@H](C)O)C(C)C` [SEQ ID NO: 205] (Ac-IHVTIPADIWDWINK-NH2) had an IC50 of less than 10 µM.

With `CC[C@H](C)[C@H](NC(C)=O)C(=O)N[C@@H](Cc1c[nH]cn1)C(=O)N[C@H](C(=O)N[C@H](C(=O)N[C@H](C(=O)N1CCC[C@H]1C(=O)N[C@@H](C)C(=O)N[C@@H](CC(=O)O)C(=O)N[C@@H](CC(C)C)C(=O)N[C@@H](Cc1c[nH]cn1)C(=O)N[C@@H](CC(=O)O)C(=O)N[C@@H](Cc1c[nH]c2ccccc12)C(=O)N[C@H](C(=O)N[C@@H](CC(N)=O)C(=O)N[C@@H](CCCCN)C(N)=O)[C@@H](C)CC)[C@@H](C)CC)[C@@H](C)O)C(C)C` [SEQ ID NO: 206] (Ac-IHVTIPADLHDWINK-NH2), under setting [1], the IC50 is less than 10 µM.

As to `CC[C@H](C)[C@H](NC(C)=O)C(=O)N[C@@H](Cc1c[nH]cn1)C(=O)N[C@H](C(=O)N[C@H](C(=O)N[C@H](C(=O)N1CCC[C@H]1C(=O)N[C@@H](C)C(=O)N[C@@H](CC(=O)O)C(=O)N[C@@H](CC(C)C)C(=O)N[C@@H](Cc1ccccc1)C(=O)N[C@@H](CC(=O)O)C(=O)N[C@@H](Cc1c[nH]c2ccccc12)C(=O)N[C@H](C(=O)N[C@@H](CC(N)=O)C(=O)N[C@@H](CCCCN)C(N)=O)[C@@H](C)CC)[C@@H](C)CC)[C@@H](C)O)C(C)C` [SEQ ID NO: 207] (Ac-IHVTIPADLFDWINK-NH2), the IC50 under setting [1] is less than 10 µM.

For the molecule `CC[C@H](C)[C@H](NC(C)=O)C(=O)N[C@@H](Cc1c[nH]cn1)C(=O)N[C@H](C(=O)N[C@H](C(=O)N[C@H](C(=O)N1CCC[C@H]1C(=O)N[C@@H](C)C(=O)N[C@@H](CC(=O)O)C(=O)N[C@@H](CC(C)C)C(=O)N[C@@H](Cc1c[nH]c2ccccc12)C(=O)N[C@@H](CC(N)=O)C(=O)N[C@@H](Cc1c[nH]c2ccccc12)C(=O)N[C@H](C(=O)N[C@@H](CC(N)=O)C(=O)N[C@@H](CCCCN)C(N)=O)[C@@H](C)CC)[C@@H](C)CC)[C@@H](C)O)C(C)C` [SEQ ID NO: 208] (Ac-IHVTIPADLWNWINK-NH2), under setting [1], the IC50 is less than 10 µM.

`CC[C@H](C)[C@H](NC(C)=O)C(=O)N[C@@H](Cc1c[nH]cn1)C(=O)N[C@H](C(=O)N[C@H](C(=O)N[C@H](C(=O)N1CCC[C@H]1C(=O)N[C@@H](C)C(=O)N[C@@H](CC(=O)O)C(=O)N[C@@H](CC(C)C)C(=O)N[C@@H](Cc1c[nH]c2ccccc12)C(=O)N[C@@H](CC(=O)O)C(=O)N[C@@H](Cc1c[nH]cn1)C(=O)N[C@H](C(=O)N[C@@H](CC(N)=O)C(=O)N[C@@H](CCCCN)C(N)=O)[C@@H](C)CC)[C@@H](C)CC)[C@@H](C)O)C(C)C` [SEQ ID NO: 209] (Ac-IHVTIPADLWDHINK-NH2): under setting [1], the IC50 is less than 10 µM.

In the case of `CC[C@H](C)[C@H](NC(C)=O)C(=O)N[C@@H](Cc1c[nH]cn1)C(=O)N[C@H](C(=O)N[C@H](C(=O)N[C@H](C(=O)N1CCC[C@H]1C(=O)N[C@@H](C)C(=O)N[C@@H](CC(=O)O)C(=O)N[C@@H](CC(C)C)C(=O)N[C@@H](Cc1c[nH]c2ccccc12)C(=O)N[C@@H](CC(=O)O)C(=O)N[C@@H](Cc1ccccc1)C(=O)N[C@H](C(=O)N[C@@H](CC(N)=O)C(=O)N[C@@H](CCCCN)C(N)=O)[C@@H](C)CC)[C@@H](C)CC)[C@@H](C)O)C(C)C` [SEQ ID NO: 210] (Ac-IHVTIPADLWDFINK-NH2), the IC50 under setting [1] is less than 10 µM.

Regarding `CC[C@H](C)[C@H](NC(C)=O)C(=O)N[C@@H](Cc1c[nH]cn1)C(=O)N[C@H](C(=O)N[C@H](C(=O)N[C@H](C(=O)N1CCC[C@H]1C(=O)N[C@@H](C)C(=O)N[C@@H](CC(=O)O)C(=O)N[C@@H](CC(C)C)C(=O)N[C@@H](Cc1c[nH]c2ccccc12)C(=O)N[C@@H](CC(=O)O)C(=O)N[C@@H](Cc1ccc(O)cc1)C(=O)N[C@H](C(=O)N[C@@H](CC(N)=O)C(=O)N[C@@H](CCCCN)C(N)=O)[C@@H](C)CC)[C@@H](C)CC)[C@@H](C)O)C(C)C` [SEQ ID NO: 211] (Ac-IHVTIPADLWDYINK-NH2), under setting [1], the IC50 is less than 10 µM.

As for `CC[C@H](C)[C@H](NC(C)=O)C(=O)N[C@@H](Cc1c[nH]cn1)C(=O)N[C@H](C(=O)N[C@H](C(=O)N[C@H](C(=O)N1CCC[C@H]1C(=O)N[C@@H](C)C(=O)N[C@@H](CC(=O)O)C(=O)N[C@@H](CC(C)C)C(=O)N[C@@H](Cc1c[nH]c2ccccc12)C(=O)N[C@@H](CC(=O)O)C(=O)N[C@@H](Cc1c[nH]c2ccccc12)C(=O)N[C@@H](CCC(=O)O)C(=O)N[C@@H](CC(N)=O)C(=O)N[C@@H](CCCCN)C(N)=O)[C@@H](C)CC)[C@@H](C)O)C(C)C` [SEQ ID NO: 212] (Ac-IHVTIPADLWDWENK-NH2), the IC50 under setting [1] was less than 10 µM.

As for `CC[C@H](C)[C@H](NC(C)=O)C(=O)N[C@@H](Cc1c[nH]cn1)C(=O)N[C@H](C(=O)N[C@H](C(=O)N[C@H](C(=O)N1CCC[C@H]1C(=O)N[C@@H](C)C(=O)N[C@@H](CC(=O)O)C(=O)N[C@@H](CC(C)C)C(=O)N[C@@H](Cc1c[nH]c2ccccc12)C(=O)N[C@@H](CC(=O)O)C(=O)N[C@@H](Cc1c[nH]c2ccccc12)C(=O)N[C@@H](CCCCN)C(=O)N[C@@H](CC(N)=O)C(=O)N[C@@H](CCCCN)C(N)=O)[C@@H](C)CC)[C@@H](C)O)C(C)C` [SEQ ID NO: 213] (Ac-IHVTIPADLWDWKNK-NH2), the IC50 under setting [1] was less than 10 µM.

Consider `CC[C@H](C)[C@H](NC(C)=O)C(=O)N[C@@H](Cc1c[nH]cn1)C(=O)N[C@H](C(=O)N[C@H](C(=O)N[C@H](C(=O)N1CCC[C@H]1C(=O)N[C@@H](C)C(=O)N[C@@H](CC(=O)O)C(=O)N[C@@H](CC(C)C)C(=O)N[C@@H](Cc1c[nH]c2ccccc12)C(=O)N[C@@H](CC(=O)O)C(=O)N[C@@H](Cc1c[nH]c2ccccc12)C(=O)N[C@@H](C)C(=O)N[C@@H](CC(N)=O)C(=O)N[C@@H](CCCCN)C(N)=O)[C@@H](C)CC)[C@@H](C)O)C(C)C` [SEQ ID NO: 214] (Ac-IHVTIPADLWDWANK-NH2), for which the IC50 under setting [1] is less than 10 µM.

Turning to `CC[C@H](C)[C@H](NC(C)=O)C(=O)N[C@@H](Cc1c[nH]cn1)C(=O)N[C@H](C(=O)N[C@H](C(=O)N[C@H](C(=O)N1CCC[C@H]1C(=O)N[C@@H](C)C(=O)N[C@@H](CC(=O)O)C(=O)N[C@@H](CC(C)C)C(=O)N[C@@H](Cc1c[nH]c2ccccc12)C(=O)N[C@@H](CC(=O)O)C(=O)N[C@@H](Cc1c[nH]c2ccccc12)C(=O)NCC(=O)N[C@@H](CC(N)=O)C(=O)N[C@@H](CCCCN)C(N)=O)[C@@H](C)CC)[C@@H](C)O)C(C)C` [SEQ ID NO: 215] (Ac-IHVTIPADLWDWGNK-NH2), the IC50 under setting [1] was less than 10 µM.

Take `CC[C@H](C)[C@H](NC(C)=O)C(=O)N[C@@H](Cc1c[nH]cn1)C(=O)N[C@H](C(=O)N[C@H](C(=O)N[C@H](C(=O)N1CCC[C@H]1C(=O)N[C@@H](C)C(=O)N[C@@H](CC(=O)O)C(=O)N[C@@H](CC(C)C)C(=O)N[C@@H](Cc1c[nH]c2ccccc12)C(=O)N[C@@H](CC(=O)O)C(=O)N[C@@H](Cc1c[nH]c2ccccc12)C(=O)N[C@@H](CC(C)C)C(=O)N[C@@H](CC(N)=O)C(=O)N[C@@H](CCCCN)C(N)=O)[C@@H](C)CC)[C@@H](C)O)C(C)C` [SEQ ID NO: 216] (Ac-IHVTIPADLWDWLNK-NH2): the IC50 under setting [1] is less than 10 µM.

With `CC[C@H](C)[C@H](NC(C)=O)C(=O)N[C@@H](Cc1c[nH]cn1)C(=O)N[C@H](C(=O)N[C@H](C(=O)N[C@H](C(=O)N1CCC[C@H]1C(=O)N[C@@H](C)C(=O)N[C@@H](CC(=O)O)C(=O)N[C@@H](CC(C)C)C(=O)N[C@@H](Cc1c[nH]c2ccccc12)C(=O)N[C@@H](CC(=O)O)C(=O)N[C@@H](Cc1c[nH]c2ccccc12)C(=O)N1CCC[C@H]1C(=O)N[C@@H](CC(N)=O)C(=O)N[C@@H](CCCCN)C(N)=O)[C@@H](C)CC)[C@@H](C)O)C(C)C` [SEQ ID NO: 217] (Ac-IHVTIPADLWDWPNK-NH2), the IC50 under setting [1] is less than 10 µM.

Consider `CC[C@H](C)[C@H](NC(C)=O)C(=O)N[C@@H](Cc1c[nH]cn1)C(=O)N[C@H](C(=O)N[C@H](C(=O)N[C@H](C(=O)N1CCC[C@H]1C(=O)N[C@@H](C)C(=O)N[C@@H](CC(=O)O)C(=O)N[C@@H](CC(C)C)C(=O)N[C@@H](Cc1c[nH]c2ccccc12)C(=O)N[C@@H](CC(=O)O)C(=O)N[C@@H](Cc1c[nH]c2ccccc12)C(=O)N[C@@H](Cc1ccccc1)C(=O)N[C@@H](CC(N)=O)C(=O)N[C@@H](CCCCN)C(N)=O)[C@@H](C)CC)[C@@H](C)O)C(C)C` [SEQ ID NO: 218] (Ac-IHVTIPADLWDWFNK-NH2), for which the IC50 under setting [1] is less than 10 µM.

Turning to `CC[C@H](C)[C@H](NC(C)=O)C(=O)N[C@@H](Cc1c[nH]cn1)C(=O)N[C@H](C(=O)N[C@H](C(=O)N[C@H](C(=O)N1CCC[C@H]1C(=O)N[C@@H](C)C(=O)N[C@@H](CC(=O)O)C(=O)N[C@@H](CC(C)C)C(=O)N[C@@H](Cc1c[nH]c2ccccc12)C(=O)N[C@@H](CC(=O)O)C(=O)N[C@@H](Cc1c[nH]c2ccccc12)C(=O)N[C@@H](Cc1ccc(O)cc1)C(=O)N[C@@H](CC(N)=O)C(=O)N[C@@H](CCCCN)C(N)=O)[C@@H](C)CC)[C@@H](C)O)C(C)C` [SEQ ID NO: 219] (Ac-IHVTIPADLWDWYNK-NH2), the IC50 under setting [1] was less than 10 µM.

`CC[C@H](C)[C@H](NC(C)=O)C(=O)N[C@@H](Cc1c[nH]cn1)C(=O)N[C@H](C(=O)N[C@H](C(=O)N[C@H](C(=O)N1CCC[C@H]1C(=O)N[C@@H](C)C(=O)N[C@@H](CC(=O)O)C(=O)N[C@@H](CC(C)C)C(=O)N[C@@H](Cc1c[nH]c2ccccc12)C(=O)N[C@@H](CC(=O)O)C(=O)N[C@@H](Cc1c[nH]c2ccccc12)C(=O)N[C@H](C(=O)N[C@@H](CCC(N)=O)C(=O)N[C@@H](CCCCN)C(N)=O)[C@@H](C)CC)[C@@H](C)CC)[C@@H](C)O)C(C)C` [SEQ ID NO: 220] (Ac-IHVTIPADLWDWIQK-NH2): the IC50 under setting [1] is less than 10 µM.

For the origin of these results see patent US11236129B2, “IL-17A binding peptides and medical uses thereof” (Dompe' Farmaceutici S.P.A., priority 2018, dated 2022).
